In experiment [1] the target is T1, human Adenosine A2a receptor (Homo sapiens, UniProt P29274).
T1 construct: expressed in transfected cells; host or cells: CHO cell membranes
Nature of the experiment: Adenosine receptor TR-FRET binding assay (CA200645 displacement), A2a. As to conditions: 100 nM CA200645, CHO cell membranes, 2 hours at room temperature.

Experiment [2] concerns the target T2, human Adenosine A2b receptor (Homo sapiens, UniProt P29275).
T2 construct: expressed in transfected cells; host or cells: CHO cell membranes
T2 sequence (P29275 1-332): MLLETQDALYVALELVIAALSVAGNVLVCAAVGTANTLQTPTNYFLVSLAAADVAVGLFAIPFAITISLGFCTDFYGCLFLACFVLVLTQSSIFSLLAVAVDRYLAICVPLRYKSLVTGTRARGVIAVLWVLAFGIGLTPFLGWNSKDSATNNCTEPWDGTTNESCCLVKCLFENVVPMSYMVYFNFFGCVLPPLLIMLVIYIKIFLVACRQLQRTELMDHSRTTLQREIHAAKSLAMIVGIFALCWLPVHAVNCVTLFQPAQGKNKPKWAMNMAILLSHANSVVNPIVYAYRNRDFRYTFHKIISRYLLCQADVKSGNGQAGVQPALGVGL
Nature of the experiment: Adenosine receptor TR-FRET binding assay (CA200645 displacement), A2b. The note with it: 30 nM CA200645, CHO cell membranes, 2 hours at room temperature.

Experiment [3] addresses T3, human Adenosine A1 receptor (Homo sapiens, UniProt P30542).
T3 sequence (P30542 1-326): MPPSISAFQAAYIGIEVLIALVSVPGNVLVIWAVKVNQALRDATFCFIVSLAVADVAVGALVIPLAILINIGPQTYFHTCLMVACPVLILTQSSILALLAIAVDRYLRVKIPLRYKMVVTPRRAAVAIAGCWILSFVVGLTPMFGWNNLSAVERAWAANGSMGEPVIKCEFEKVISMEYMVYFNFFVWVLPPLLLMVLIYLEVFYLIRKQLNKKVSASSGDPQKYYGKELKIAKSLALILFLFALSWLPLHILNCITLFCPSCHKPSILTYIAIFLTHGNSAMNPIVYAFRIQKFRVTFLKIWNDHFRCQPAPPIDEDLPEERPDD
Nature of the experiment: Adenosine receptor TR-FRET binding assay (CA200645 displacement), A1.

For experiment [4], the target named is T4, human Adenosine A3 receptor (Homo sapiens, UniProt P0DMS8).
T4 sequence (P0DMS8 1-318): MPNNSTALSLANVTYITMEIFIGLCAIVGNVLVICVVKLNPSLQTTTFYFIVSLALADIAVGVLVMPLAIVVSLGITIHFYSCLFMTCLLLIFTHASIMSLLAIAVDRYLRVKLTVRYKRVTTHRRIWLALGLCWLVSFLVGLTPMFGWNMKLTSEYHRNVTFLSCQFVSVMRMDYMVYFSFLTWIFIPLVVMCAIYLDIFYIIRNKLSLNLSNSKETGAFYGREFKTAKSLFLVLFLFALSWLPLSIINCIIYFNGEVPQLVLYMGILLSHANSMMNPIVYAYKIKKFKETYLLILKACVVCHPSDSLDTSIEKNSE
Briefly: Adenosine receptor TR-FRET binding assay (CA200645 displacement), A3.

Where a name gives a salt, the structure may show the parent alone. Where only a bound is given, the exact number is not on record here.

T1 sequence (P29274 whole entry): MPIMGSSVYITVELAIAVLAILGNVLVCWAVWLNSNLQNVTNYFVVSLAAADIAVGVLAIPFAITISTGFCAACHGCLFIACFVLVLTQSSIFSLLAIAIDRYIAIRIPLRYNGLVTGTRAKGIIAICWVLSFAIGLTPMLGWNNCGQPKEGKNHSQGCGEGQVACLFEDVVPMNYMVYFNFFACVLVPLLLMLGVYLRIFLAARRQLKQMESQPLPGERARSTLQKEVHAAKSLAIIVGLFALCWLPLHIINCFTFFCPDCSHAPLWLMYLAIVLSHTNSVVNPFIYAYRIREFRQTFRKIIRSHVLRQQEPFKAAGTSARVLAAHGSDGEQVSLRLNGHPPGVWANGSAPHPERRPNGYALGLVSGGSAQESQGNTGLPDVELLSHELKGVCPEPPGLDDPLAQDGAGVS

Regarding `Cc1cc(-c2c(-c3cccc(C#N)c3)nn3ccc(C(=O)N[C@@H]4CCNC4)nc23)cc(Cl)n1` [Example 7.13, 3-(2-Chloro-6-methyl-4-pyridyl)-2-(3-cyanophenyl)-N-[(3R)-pyrrolidin-3-yl]pyrazolo[1,5-a]pyrimidine-5-carboxamide hydrochloride], the inhibition constant Ki is 6.3 nM in experiment [1], 28 nM in experiment [2], 160 nM in experiment [3] and above 1000 nM in experiment [4].
On the same counts, the results for `Cc1cc(-c2c(-c3cccc(C#N)c3)nn3ccc(C(=O)NC4CCNCC4)nc23)cc(Cl)n1` [Example 7.15, 3-(2-Chloro-6-methyl-4-pyridyl)-2-(3-cyanophenyl)-N-(4-piperidyl)pyrazolo[1,5-a]pyrimidine-5-carboxamide] are 22.1 nM, 25 nM, 703 nM and above 1000 nM.
Take `Cc1cc(-c2c(-c3cccc(C#N)c3)nn3ccc(C(C)(C)O)nc23)cc(Cl)n1` [Example 8, 3-[3-(2-Chloro-6-methyl-4-pyridyl)-5-(1-hydroxy-1-methyl-ethyl)pyrazolo[1,5-a]pyrimidin-2-yl]benzonitrile]: the inhibition constant (Ki) in experiment [1] is 9.9 nM; in experiment [2], 41 nM; in experiment [3], 291 nM; in experiment [4], above 1000 nM.
Take `Cc1cc(-c2c(-c3cccc(C#N)c3)nn3ccc(NS(C)(=O)=O)nc23)cc(Cl)n1` [Example 16, N-[3-(2-Chloro-6-methyl-4-pyridyl)-2-(3-cyanophenyl)pyrazolo[1,5-a]pyrimidin-5-yl]methanesulfonamide]: the Ki amounted to 13.7 nM in experiment [1], 1 nM in experiment [2], 303 nM in experiment [3] and 1180 nM in experiment [4].
For `Cc1cc(-c2c(-c3cccc(C#N)c3)nn3ccc(N[C@@H](C)C(=O)O)nc23)cc(Cl)n1` [Example 17, (2S)-2-[[3-(2-Chloro-6-methyl-4-pyridyl)-2-(3-cyanophenyl)pyrazolo[1,5-a]pyrimidin-5-yl]amino]propanoic acid] the same measures were 17.9 nM, 101 nM, 136 nM and above 1000 nM.
For `Cc1cc(-c2c(-c3cccc(C#N)c3)nn3ccc(O[C@@H]4CCNC4)nc23)cc(Cl)n1` [Example 18, 3-[3-(2-Chloro-6-methyl-4-pyridyl)-5-[(3R)-pyrrolidin-3-yl]oxy-pyrazolo[1,5-a]pyrimidin-2-yl]benzonitrile formate] the same measures were 9.7 nM, 16 nM, 54 nM and above 1000 nM.
For `Cc1cc(-c2c(-c3cccc(C#N)c3)nn3ccc(CN4CCOCC4)nc23)cc(Cl)n1` [Example 20, 3-[3-(2-Chloro-6-methyl-4-pyridyl)-5-(morpholinomethyl)pyrazolo[1,5-a]pyrimidin-2-yl]benzonitrile] the same measures were 11.6 nM, 22 nM, 573 nM and above 1000 nM.
Regarding `Cc1cc(-c2c(-c3cccc(C#N)c3)nn3ccc(CN4CCNCC4)nc23)cc(C)n1` [Example 20.1, 3-[3-(2,6-Dimethyl-4-pyridyl)-5-(piperazin-1-ylmethyl)pyrazolo[1,5-a]pyrimidin-2-yl]benzonitrile trifluoroacetate], the Ki in experiment [1] is 116 nM; in experiment [2], 626 nM; in experiment [3] it was 2530 nM; in experiment [4], above 1000 nM.
On the same counts, the results for `Cc1cc(-c2c(-c3cccc(C#N)c3)nn3ccc(CN)nc23)cc(Cl)n1` [Example 21, 3-[5-(Aminomethyl)-3-(2-chloro-6-methyl-4-pyridyl)pyrazolo[1,5-a]pyrimidin-2-yl]benzonitrile] are 81.5 nM, 102 nM, 2440 nM and above 1000 nM.
For `Cc1cc(-c2c(-c3cccc(C#N)c3)nn3ccc(CCC(C)(C)O)nc23)cc(Cl)n1` [Example 22, 3-[3-(2-Chloro-6-methyl-4-pyridyl)-5-(3-hydroxy-3-methyl-butyl)pyrazolo[1,5-a]pyrimidin-2-yl]benzonitrile], the Ki is 1 nM in experiment [1], 34 nM in experiment [2], 141 nM in experiment [3] and above 1000 nM in experiment [4].
Consider `Cc1cc(-c2c(-c3cccc(C#N)c3)nn3ccc(N(C)C)nc23)cc(Cl)n1` [Example 23.4], for which the inhibition constant (Ki) in experiment [1] turned out to be 10.2 nM; in experiment [2], 90 nM; in experiment [3], 163 nM; in experiment [4], 1980 nM.
For `Cc1cc(-c2c(-c3cccc(C#N)c3)nn3ccc(O[C@@H]4CCCNC4)nc23)cc(Cl)n1` [Example 24.1, 3-[3-(2-Chloro-6-methyl-4-pyridyl)-5-[[(3R)-3-piperidyl]oxy]pyrazolo[1,5-a]pyrimidin-2-yl]benzonitrile], the inhibition constant Ki is 3.3 nM in experiment [1], 29 nM in experiment [2], 9 nM in experiment [3] and 1650 nM in experiment [4].
As to `Cc1cc(-c2c(-c3cccc(C#N)c3)nn3ccc(N)nc23)cnc1N` [Example 26, 3-[5-Amino-3-(6-amino-5-methyl-3-pyridyl)pyrazolo[1,5-a]pyrimidin-2-yl]benzonitrile], the inhibition constant Ki in experiment [1] turned out to be 147 nM; in experiment [2], 409 nM; in experiment [3], 6 nM; in experiment [4], 2430 nM.
On the same counts, the results for `Cc1cc(-c2c(-c3cccc(C#N)c3)nn3ccc(N)nc23)cc(F)n1` [Example 26.4, 3-[5-Amino-3-(2-fluoro-6-methyl-4-pyridyl)pyrazolo[1,5-a]pyrimidin-2-yl]benzonitrile] are 10.1 nM, 16 nM, 6 nM and 578 nM.
On the same counts, the results for `Cn1cc(-c2c(-c3cccc(C#N)c3)nn3ccc(N)nc23)cn1` [Example 26.5, 3-[5-Amino-3-(1-methylpyrazol-4-yl)pyrazolo[1,5-a]pyrimidin-2-yl]benzonitrile] are 105 nM, 1200 nM, 89 nM and 749 nM.
For the molecule `Cc1cc(-c2c(-c3cccc(C#N)c3)nn3ccc(N)nc23)cc(C)[n+]1[O-]` [Example 27, 3-[5-Amino-3-(2,6-dimethyl-1-oxido-pyridin-1-ium-4-yl)pyrazolo[1,5-a]pyrimidin-2-yl]benzonitrile], the inhibition constant Ki was 1.8 nM in experiment [1], 2 nM in experiment [2], 4 nM in experiment [3] and above 1000 nM in experiment [4].
For `Cc1cc(-c2c(-c3cccc(C#N)c3)nn3ccc(N)nc23)cc(C(N)=O)n1` [Example 27.2, 4-[5-Amino-2-(3-cyanophenyl)pyrazolo[1,5-a]pyrimidin-3-yl]-6-methyl-pyridine-2-carboxamide], the Ki is 13.3 nM in experiment [1], 39 nM in experiment [2], 17 nM in experiment [3] and above 1000 nM in experiment [4].
For `CC(=O)Nc1cc(-c2c(-c3cccc(C#N)c3)nn3ccc(N)nc23)cc(C)n1` [Example 27.4, N-[4-[5-Amino-2-(3-cyanophenyl)pyrazolo[1,5-a]pyrimidin-3-yl]-6-methyl-2-pyridyl]acetamide] the same measures were 54.1 nM, 519 nM, 583 nM and above 1000 nM.

The record behind these values is patent US20230203041A1, “ANTAGONISTS OF THE ADENOSINE A2A RECEPTOR” (AdoRx Therapeutics Limited, priority 2020, published 2023).
